For 15 molecules, EC50 results are on record in ChEMBL document CHEMBL1145783, “Development of an orexin-2 receptor selective agonist, [Ala(11), D-Leu(15)]orexin-B” (Bioorg Med Chem Lett, 2003).

pEC50: −log10 of the molar value.

The pEC50 is the EC50 on a negative log10 scale, so that one unit is a factor of ten. A lower pEC50 goes with a high EC50.

In the test the target is T1, Orexin receptor type 2 (Homo sapiens, UniProt O43614).
T1 sequence (O43614 whole entry): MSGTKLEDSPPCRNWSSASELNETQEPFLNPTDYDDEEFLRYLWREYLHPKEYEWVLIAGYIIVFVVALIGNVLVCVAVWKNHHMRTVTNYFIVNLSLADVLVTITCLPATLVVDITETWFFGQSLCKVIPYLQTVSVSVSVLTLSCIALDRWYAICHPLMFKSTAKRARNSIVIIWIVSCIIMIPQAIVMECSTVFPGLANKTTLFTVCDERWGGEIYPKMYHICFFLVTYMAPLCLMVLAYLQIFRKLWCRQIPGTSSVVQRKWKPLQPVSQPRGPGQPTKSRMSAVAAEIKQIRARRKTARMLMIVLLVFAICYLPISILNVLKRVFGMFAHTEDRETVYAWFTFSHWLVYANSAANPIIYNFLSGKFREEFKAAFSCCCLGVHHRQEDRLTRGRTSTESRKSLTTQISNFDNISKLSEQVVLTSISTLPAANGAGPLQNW
Put plainly: Agonist activity against human orexin 2 receptor; EC50; nM. It counts as functional.
`CC[C@H](C)[C@H](NC(=O)[C@H](CC(C)C)NC(=O)[C@@H](NC(=O)[C@@H](N)CCSC)[C@@H](C)O)C(=O)NCC(=O)N[C@@H](C)C(=O)N[C@@H](C)C(=O)N[C@@H](Cc1c[nH]cn1)C(=O)N[C@@H](CC(N)=O)C(=O)NCC(=O)N[C@@H](CO)C(=O)N[C@@H](C)C(=O)N[C@@H](CCC(N)=O)C(=O)N[C@@H](CC(C)C)C(=O)N[C@@H](CC(C)C)C(=O)N[C@@H](CCCN=C(N)N)C(=O)N[C@@H](CCC(N)=O)C(=O)N[C@@H](CC(C)C)C(=O)N[C@H](CCCN=C(N)N)C(=O)NCC(=O)N[C@@H](CCC(N)=O)C(=O)N[C@@H](CC(C)C)C(=O)NCC(=O)N1CCC[C@H]1C(=O)N1CCC[C@H]1C(=O)NCC(=O)N[C@@H](CO)C(=O)N[C@@H](CCCN=C(N)N)C(N)=O` had a negative-log EC50 (pEC50) of 9.06. The figure for `CC[C@H](C)[C@H](NC(=O)[C@H](CC(C)C)NC(=O)[C@@H](NC(=O)[C@@H](N)CCSC)[C@@H](C)O)C(=O)N[C@H](C)C(=O)N[C@@H](C)C(=O)N[C@@H](C)C(=O)N[C@@H](Cc1cnc[nH]1)C(=O)N[C@@H](CC(N)=O)C(=O)NCC(=O)N[C@@H](CO)C(=O)N[C@@H](C)C(=O)N[C@@H](CCC(N)=O)C(=O)N[C@@H](CC(C)C)C(=O)N[C@@H](CC(C)C)C(=O)N[C@@H](CCCN=C(N)N)C(=O)N[C@@H](CCC(N)=O)C(=O)N[C@@H](CC(C)C)C(=O)N[C@@H](CCCN=C(N)N)C(=O)NCC(=O)N[C@@H](CCC(N)=O)C(=O)N[C@@H](CC(C)C)C(=O)NCC(=O)N1CCC[C@H]1C(=O)N1CCC[C@H]1C(=O)NCC(=O)N[C@@H](CO)C(=O)N[C@@H](CCCN=C(N)N)C(N)=O` is 7.17; for H-ATLIGAAHNGSAQLLRQLRGQLGPPGSR-NH2 it is 7.82; for `CC[C@H](C)[C@H](NC(=O)[C@H](CC(C)C)NC(=O)[C@@H](NC(=O)[C@@H](N)CCSC)[C@@H](C)O)C(=O)NCC(=O)N[C@@H](C)C(=O)N[C@@H](C)C(=O)N[C@@H](Cc1cnc[nH]1)C(=O)N[C@H](CC(N)=O)C(=O)NCC(=O)N[C@@H](CO)C(=O)N[C@@H](C)C(=O)N[C@@H](CCC(N)=O)C(=O)N[C@@H](CC(C)C)C(=O)N[C@@H](CC(C)C)C(=O)N[C@@H](CCCN=C(N)N)C(=O)N[C@@H](CCC(N)=O)C(=O)N[C@@H](CC(C)C)C(=O)N[C@@H](CCCN=C(N)N)C(=O)NCC(=O)N[C@@H](CCC(N)=O)C(=O)N[C@@H](CC(C)C)C(=O)NCC(=O)N1CCC[C@H]1C(=O)N1CCC[C@H]1C(=O)NCC(=O)N[C@@H](CO)C(=O)N[C@@H](CCCN=C(N)N)C(N)=O` it is 9.59.

Turning to H-MTLIGAAHNGSAQALRQLRGQLGPPGSR-NH2, the negative logarithm of the EC50 (pEC50) is 8.66. For `CC[C@H](C)[C@H](NC(=O)[C@H](CC(C)C)NC(=O)[C@@H](NC(=O)[C@H](N)CCSC)[C@@H](C)O)C(=O)NCC(=O)N[C@@H](C)C(=O)N[C@@H](C)C(=O)N[C@@H](Cc1c[nH]cn1)C(=O)N[C@@H](CC(N)=O)C(=O)NCC(=O)N[C@@H](CO)C(=O)N[C@@H](C)C(=O)N[C@@H](CCC(N)=O)C(=O)N[C@@H](CC(C)C)C(=O)N[C@@H](CC(C)C)C(=O)N[C@@H](CCCN=C(N)N)C(=O)N[C@@H](CCC(N)=O)C(=O)N[C@@H](CC(C)C)C(=O)N[C@@H](CCCN=C(N)N)C(=O)NCC(=O)N[C@@H](CCC(N)=O)C(=O)N[C@@H](CC(C)C)C(=O)NCC(=O)N1CCC[C@H]1C(=O)N1CCC[C@H]1C(=O)NCC(=O)N[C@@H](CO)C(=O)N[C@@H](CCCN=C(N)N)C(N)=O`, the pEC50 is below 6.54. The figure for H-MTLIGAAHNGSAQLARQLRGQLGPPGSR-NH2 is 10.19; for `CC[C@H](C)[C@H](NC(=O)[C@H](CC(C)C)NC(=O)[C@@H](NC(=O)[C@@H](N)CCSC)[C@@H](C)O)C(=O)NCC(=O)N[C@@H](C)C(=O)N[C@@H](C)C(=O)N[C@@H](Cc1c[nH]cn1)C(=O)N[C@@H](CC(N)=O)C(=O)NCC(=O)N[C@@H](CO)C(=O)N[C@@H](C)C(=O)N[C@@H](CCC(N)=O)C(=O)N[C@@H](CC(C)C)C(=O)N[C@@H](CC(C)C)C(=O)N[C@@H](CCCN=C(N)N)C(=O)N[C@@H](CCC(N)=O)C(=O)N[C@@H](CC(C)C)C(=O)N[C@@H](CCCN=C(N)N)C(=O)NCC(=O)N[C@@H](CCC(N)=O)C(=O)N[C@H](CC(C)C)C(=O)NCC(=O)N1CCC[C@H]1C(=O)N1CCC[C@H]1C(=O)NCC(=O)N[C@@H](CO)C(=O)N[C@@H](CCCN=C(N)N)C(N)=O` it is 10.08. Under H-MTLIGAAHNGSAQLLRQLRGQAGPPGSR-NH2 stands 9.92; under `CC[C@H](C)[C@H](NC(=O)[C@H](CC(C)C)NC(=O)[C@@H](NC(=O)[C@@H](N)CCSC)[C@@H](C)O)C(=O)NCC(=O)N[C@@H](C)C(=O)N[C@@H](C)C(=O)N[C@@H](Cc1c[nH]cn1)C(=O)N[C@@H](CC(N)=O)C(=O)NCC(=O)N[C@@H](CO)C(=O)N[C@@H](C)C(=O)N[C@H](CCC(N)=O)C(=O)N[C@@H](CC(C)C)C(=O)N[C@@H](CC(C)C)C(=O)N[C@@H](CCCN=C(N)N)C(=O)N[C@@H](CCC(N)=O)C(=O)N[C@@H](CC(C)C)C(=O)N[C@@H](CCCN=C(N)N)C(=O)NCC(=O)N[C@@H](CCC(N)=O)C(=O)N[C@@H](CC(C)C)C(=O)NCC(=O)N1CCC[C@H]1C(=O)N1CCC[C@H]1C(=O)NCC(=O)N[C@@H](CO)C(=O)N[C@@H](CCCN=C(N)N)C(N)=O`, 9.39. The molecule `CC[C@H](C)[C@H](NC(=O)[C@H](CC(C)C)NC(=O)[C@@H](NC(=O)[C@@H](N)CCSC)[C@@H](C)O)C(=O)N[C@@H](C)C(=O)N[C@@H](C)C(=O)N[C@@H](C)C(=O)N[C@@H](Cc1cnc[nH]1)C(=O)N[C@@H](CC(N)=O)C(=O)NCC(=O)N[C@@H](CO)C(=O)N[C@@H](C)C(=O)N[C@@H](CCC(N)=O)C(=O)N[C@@H](CC(C)C)C(=O)N[C@@H](CC(C)C)C(=O)N[C@@H](CCCN=C(N)N)C(=O)N[C@@H](CCC(N)=O)C(=O)N[C@@H](CC(C)C)C(=O)N[C@@H](CCCN=C(N)N)C(=O)NCC(=O)N[C@@H](CCC(N)=O)C(=O)N[C@@H](CC(C)C)C(=O)NCC(=O)N1CCC[C@H]1C(=O)N1CCC[C@H]1C(=O)NCC(=O)N[C@@H](CO)C(=O)N[C@@H](CCCN=C(N)N)C(N)=O` showed a pEC50 of 6.54. Under H-MTLIGAAHNGSAQLLRQLRGQLGPPGSA-NH2 stands 9.70. Under H-MTLIGAAHNGSAQLLRQLRGQLGPPGAR-NH2 stands 9.66; under `CC[C@H](C)[C@H](NC(=O)[C@@H](CC(C)C)NC(=O)[C@@H](NC(=O)[C@@H](N)CCSC)[C@@H](C)O)C(=O)NCC(=O)N[C@@H](C)C(=O)N[C@@H](C)C(=O)N[C@@H](Cc1cnc[nH]1)C(=O)N[C@@H](CC(N)=O)C(=O)NCC(=O)N[C@@H](CO)C(=O)N[C@@H](C)C(=O)N[C@@H](CCC(N)=O)C(=O)N[C@@H](CC(C)C)C(=O)N[C@@H](CC(C)C)C(=O)N[C@@H](CCCN=C(N)N)C(=O)N[C@@H](CCC(N)=O)C(=O)N[C@@H](CC(C)C)C(=O)N[C@@H](CCCN=C(N)N)C(=O)NCC(=O)N[C@@H](CCC(N)=O)C(=O)N[C@@H](CC(C)C)C(=O)NCC(=O)N1CCC[C@H]1C(=O)N1CCC[C@H]1C(=O)NCC(=O)N[C@@H](CO)C(=O)N[C@@H](CCCN=C(N)N)C(N)=O`, below 6.70. The figure for H-MTLIGAAHNGSAQLLRQLRGALGPPGSR-NH2 is 9.34.
